Measurements as given in PubChem BioAssay AID1918956 (Molecular Pharmacology Branch, DTP, NCI, 2023).
pIC50: −log10 of the molar value.

Test system: OVCAR-5 complex spheroids, viability
Experiment: Anticancer human tumor OVCAR-5 cell line growth inhibition;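 also: spheroids exposed to agents for seven days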;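 as to viability, T/C: 100% = DMSO vehicle control wells viability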
Details: for pIC50: curve of first compound; for viability, T/C: stronger effect = lower value
Summary of the method: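 Multicellular complex spheroids of tumor cells with human endothelial cells (HUVEC) and mesenchymal stem cells; the LSD1 inhibitor iadademstat was combined with standard-of-care or investigational agents. Top concentration at or near clinical Cmax, half-log dilutions; final DMSO ≤0.25%.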

For `Nc1ccccc1NC(=O)c1ccc(CNC(=O)OCc2cccnc2)cc1` + NC1CCC(NC2CC2c2ccccc2)CC1, the pIC50 (second compound 0.1 µM) was 6.61, the pIC50 (second compound 0.316 µM) was 6.59 and the pIC50 (second compound 1 µM) was 6.53. For the same molecule, the pIC50 (second compound 3.16 µM) was 6.60, the pIC50 (second compound 10 µM) was 6.77 and the viability, T/C (second compound 0.1 µM, first compound 0.00949 µM) was 97.2%. The viability, T/C (second compound 0.1 µM, first compound 0.03 µM) was 88.6%, the viability, T/C (second compound 0.1 µM, first compound 0.0949 µM) was 69% and the viability, T/C (second compound 0.1 µM, first compound 0.3 µM) was 46.3%. The viability, T/C (second compound 0.1 µM, first compound 0.949 µM) was 23.8%, the viability, T/C (second compound 0.1 µM, first compound 3 µM) was 9.78% and the viability, T/C (second compound 0.316 µM, first compound 0.00949 µM) was 109%. For the same molecule, the viability, T/C (second compound 0.316 µM, first compound 0.03 µM) was 90.8%, the viability, T/C (second compound 0.316 µM, first compound 0.0949 µM) was 74.4% and the viability, T/C (second compound 0.316 µM, first compound 0.3 µM) was 45.5%. It also gave a viability, T/C (second compound 0.316 µM, first compound 0.949 µM) of 25%, a viability, T/C (second compound 0.316 µM, first compound 3 µM) of 10.4% and a viability, T/C (second compound 1 µM, first compound 0.00949 µM) of 101%. For the same molecule, the viability, T/C (second compound 1 µM, first compound 0.03 µM) was 97%, the viability, T/C (second compound 1 µM, first compound 0.0949 µM) was 75.6% and the viability, T/C (second compound 1 µM, first compound 0.3 µM) was 48%. It also gave a viability, T/C (second compound 1 µM, first compound 0.949 µM) of 27.3%, a viability, T/C (second compound 1 µM, first compound 3 µM) of 10.3% and a viability, T/C (second compound 3.16 µM, first compound 0.00949 µM) of 98.9%. It also gave a viability, T/C (second compound 3.16 µM, first compound 0.03 µM) of 78.5%, a viability, T/C (second compound 3.16 µM, first compound 0.0949 µM) of 69.7% and a viability, T/C (second compound 3.16 µM, first compound 0.3 µM) of 47%. The viability, T/C (second compound 3.16 µM, first compound 0.949 µM) was 26.5%, the viability, T/C (second compound 3.16 µM, first compound 3 µM) was 10.8% and the viability, T/C (second compound 10 µM, first compound 0.00949 µM) was 86.2%. It also gave a viability, T/C (second compound 10 µM, first compound 0.03 µM) of 71.6%, a viability, T/C (second compound 10 µM, first compound 0.0949 µM) of 57.2% and a viability, T/C (second compound 10 µM, first compound 0.3 µM) of 42.4%. For the same molecule, the viability, T/C (second compound 10 µM, first compound 0.949 µM) was 28.6% and the viability, T/C (second compound 10 µM, first compound 3 µM) was 9.2%.
